Test results published in patent publication US20220400680A1, “USE OF ACYLCYANAMIDES OR SALTS THEREOF FOR REGULATING PLANT GROWTH” (Alzchem Trostberg GmbH, priority 2019, published 2022).

Key:
[1] = test system: Table apple, type Boiken apple (C1); assay: Greenhouse test, cut apple branches C1 dipped in test solution, bud development stage; type: in vivo, Malus domestica; design: key to Bud development stage, apple branches C1: Stage 0: Buds unchanged; Stage 1: Buds slightly swollen, first green tips visible; Stage 2: strongly swollen, green buds; Stage 3: Buds before breaking open, leaf or flower root already visible; Stage 4: Flower buds fully developed, but still closed, white petals already visible. In the case of the grapevine, stage 4 was the unfolding of the first leaves; Stage 5: Flowers fully open or, in the case of grapevine, unfolding of the flower roots (“Gescheine”) on the fully leafed sprouts
In short: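 Cut Boiken apple branches kept in water jars in a greenhouse at about 22 °C under natural light and dipped in test solution. Solutions contained 0.15 mol test substance (0.075 mol for bis-cyanamides) plus 0.15 g BreakThru OE-446 per 500 g water. Bud development scored on a stage scale up to full flowering.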

[2] = test system: Grape, type Pinot Noir (C4); assay: Greenhouse test, cut wine sprouts C4 dipped in test solution, bud development stage; type: in vivo, Vitis vinifera subsp. vinifera; design: key to Bud development stage, wine sprouts C4: Stage 0: Buds unchanged; Stage 1: Buds slightly swollen, first green tips visible; Stage 2: strongly swollen, green buds; Stage 3: Buds before breaking open, leaf or flower root already visible; Stage 4: Flower buds fully developed, but still closed, white petals already visible. In the case of the grapevine, stage 4 was the unfolding of the first leaves; Stage 5: Flowers fully open or, in the case of grapevine, unfolding of the flower roots (“Gescheine”) on the fully leafed sprouts
In short: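 Cut Pinot Noir grapevine sprouts were dipped in aqueous test solution (0.15 mol test substance, or 0.075 mol for bis-cyanamides, plus 0.15 g BreakThru OE-446 per 500 g total) and kept in water jars at about 22° C under natural light. Bud development was scored on a staged scale from closed buds to fully open flowers.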

[3] = T1 (14 d), 0.15 mol (A-14, A-15: 0.075 mol) per 500 g solution
[4] = stage 4 reached or exceeded after 36 days vs negative control

Q: How did the “Bud development stage, apple branches C1” value [1, 3] turn out when `CC(=O)NC#N.[Na]` [Example A-1, Sodium Acetylcyanamide] was run?
A: 0

Q: What about the “Bud development stage, apple branches C1” value ([1]; T2 (16 d)) of the same compound?
A: 0

Q: What about the “Bud development stage, apple branches C1” value ([1]; T3 (21 d)) of the same compound?
A: 2

Q: And the “Bud development stage, apple branches C1” value ([1]; T4 (27 d))?
A: 3

Q: What about the “Bud development stage, apple branches C1” value ([1]; T5 (36 d)) of the same compound?
A: 5

Q: What about the “Bud development stage, apple branches C1” value ([1]; T6 (56 d)) of the same compound?
A: 5

Q: And the “Dormancy-breaking effect according to the definition, apple C1” value [1, 4]?
A: dormancy-breaking effect

Q: What about the “Bud development stage, wine sprouts C4” value [2, 3] of the same compound?
A: 0

Q: What about the “Bud development stage, wine sprouts C4” value ([2]; T2 (16 d)) of the same compound?
A: 0

Q: And the “Bud development stage, wine sprouts C4” value ([2]; T3 (21 d))?
A: 0

Q: And the “Bud development stage, wine sprouts C4” value ([2]; T4 (27 d))?
A: 1

Q: And the “Bud development stage, wine sprouts C4” value ([2]; T5 (36 d))?
A: 4

Q: And the “Bud development stage, wine sprouts C4” value ([2]; T6 (56 d))?
A: 5

Q: And the “Dormancy-breaking effect according to the definition, wine C4” value [2, 4]?
A: dormancy-breaking effect
